Reference: patent US20250136543A1, “8-[(2-HYDROXYNAPHTHALEN-1-YL)DIAZENYL]NAPHTHALENE-1,3-DISULFONIC ACID AS AN ANTIOXIDANT COMPOUND” (KING FAISAL UNIVERSITY, priority 2023, published 2025)

Test: DPPH radical scavenging antioxidant test
Type: biochemical
Conditions: 517 nm; for Inhibition (radical scavenging inhibition): 0.2 mL DPPH (0.75 mM), compound 3 μM in ethanol, 30 min incubation in the dark
Protocol: The antioxidant properties of the 8-[(2-hydroxynaphthalen-1-yl)diazenyl]naphthalene-1,3-disulfonic acid were studied by adding 0.2 mL DPPH (0.75 mM)) to compound 8-[(2-hydroxynaphthalen-1-yl)diazenyl]naphthalene-1,3-disulfonic acid (III) (3 μM) in ethanol. After 30 min of incubation in the dark, the absorbance was read against a blank at 517 nm. Ascorbic acid (vitamin C) was used as standard antioxidants (positive control). A blank sample was prepared by 0.2 ml of DPPH in 3 ml ethanol. A negative control sample was run using ethanol instead of the sample. The radical scavenging inhibition was calculated using the following equation: […]
The antioxidant activity for the synthesized compound is listed in Table 1, using Vitamin C as a reference.

| Compound | Inhibition (radical scavenging inhibition) | antioxidant potential compared to vitamin C (DPPH in vitro test, vitamin C as positive control) |
| --- | --- | --- |
| O=S(=O)(O)c1cc(S(=O)(=O)O)c2c(/N=N/c3c(O)ccc4ccccc34)cccc2c1 [Product III, 8-[(2-hydroxynaphthalen-1-yl)diazenyl]naphthalene-1,3-disulfonic acid] | 54% | high potential as an antioxidant compared to vitamin C |
| O=C1O[C@H]([C@@H](O)CO)C(O)=C1O [vit c, Ascorbic acid, reference compound] | 74% |  |
